Key:
[1] = molecular target: T1, Human melanin-concentrating hormone (MCH1) (Homo sapiens, UniProt Q99705); assay: Radioligand binding, human melanin-concentrating hormone MCH1 membranes, FlashPlate, [125I]-S36057; details: compound at 10 μM; for A6: inhibition of radioligand binding, human melanin-concentrating hormone (MCH1) / A6 radioligand binding, percentage inhibition: [125I]-S36057
T1 construct: purchased Perkin Elmer Biosignal
How it was run: (§1)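 Cloned human receptor membranes were coated onto FlashPlate wells and incubated with radioligand and compound (added from a 0.5 mM DMSO daughter plate) for 1 hour at room temperature in the dark. Scintillation counting gave percent inhibition, with DMSO defining total and reference ligand defining non-specific binding.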

[2] = molecular target: T2, Human opioid (ORL1) (Homo sapiens, UniProt P41146); assay: Radioligand binding, human opioid ORL1 membranes, FlashPlate, [125I]-Nociceptin; details: compound at 10 μM, [125I]-Nociceptin
T2 construct: purchased Perkin Elmer Biosignal
How it was run: as §1

[3] = molecular target: T3, Mouse urotensin (mUR2) (Mus musculus, UniProt Q8VIH9); assay: Radioligand binding, mouse urotensin mUR2 membranes, FlashPlate, [125I]-Urotensin II; details: compound at 10 μM, [125I]-Urotensin II
T3 construct: purchased Perkin Elmer Biosignal
T3 sequence (Q8VIH9 1-385): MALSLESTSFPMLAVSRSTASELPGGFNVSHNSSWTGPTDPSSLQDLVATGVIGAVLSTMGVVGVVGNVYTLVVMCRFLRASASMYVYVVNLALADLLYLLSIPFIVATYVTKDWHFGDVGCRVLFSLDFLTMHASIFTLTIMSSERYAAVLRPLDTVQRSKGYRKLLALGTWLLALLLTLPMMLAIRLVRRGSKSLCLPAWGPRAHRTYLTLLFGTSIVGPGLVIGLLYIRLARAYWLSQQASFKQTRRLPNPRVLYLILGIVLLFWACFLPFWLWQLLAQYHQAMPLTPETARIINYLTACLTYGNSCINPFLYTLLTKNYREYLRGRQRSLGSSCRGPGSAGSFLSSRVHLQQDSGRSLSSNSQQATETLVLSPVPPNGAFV
How it was run: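 Cloned mouse urotensin (mUR2) receptor membranes from Perkin Elmer Biosignal were immobilized in FlashPlate microplates using a proprietary coating. Each well got 19.5 μl buffer, then 0.5 μl of DMSO, reference ligand, or compound. Adding 5 μl of [125I]-Urotensin II, diluted to 5× final concentration in binding buffer, started binding. Plates were sealed with TopSeal-A and incubated 1 hour at room temperature in the dark. Wells were counted for 30 seconds each on a TopCount after a 60-second delay, and percentage inhibition was calculated.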

[4] = molecular target: T4, Human melanocortin (MC5) (Homo sapiens, UniProt P33032); assay: Radioligand binding, human melanocortin MC5 membranes, FlashPlate, [125I]-NDP-αMSH; details: compound at 10 μM, [125I]-NDP-αMSH
T4 construct: purchased Perkin Elmer Biosignal
How it was run: as §1

[5] = molecular target: T5, Human neurokinin (NK1) (Homo sapiens, UniProt P25103); assay: Radioligand binding, human neurokinin NK1 membranes, filtration, [125I]-Substance P; details: compound at 10 μM, [125I]-Substance P
T5 construct: purchased Perkin Elmer Biosignal
How it was run: (§2)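 Percent inhibition of radioligand binding measured on recombinant human membranes: NK1 with [125I]-Substance P, KOP with [3H]-Diprenorphine. Incubation 1 h at room temperature, then harvest onto 0.3% PEI-soaked filters, cold Tris-HCl pH 7.4 washes and scintillation counting; non-specific binding from reference ligand wells.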

[6] = molecular target: T6, Human δ-opioid (DOP) (Homo sapiens, UniProt P41143); assay: Radioligand binding, human δ-opioid (DOP) membranes, FlashPlate, [3H]-Bremazocine; details: compound at 10 μM, [3H]-Bremazocine
T6 construct: purchased Perkin Elmer Biosignal
How it was run: as §1

[7] = molecular target: T7, Human κ-Opioid (KOP) (Homo sapiens, UniProt P41145); assay: Radioligand binding, human κ-opioid (KOP) membranes, filtration, [3H]-Diprenorphine; details: compound at 10 μM, [3H]-Diprenorphine
T7 construct: purchased Perkin Elmer Biosignal
How it was run: as §2

[8] = molecular target: T8, Human Melanocortin (MC3) (Homo sapiens, UniProt P41968); assay: Radioligand binding, human melanocortin MC3 membranes, FlashPlate, [125I]-NDP-αMSH; details: compound at 10 μM, [125I]-NDP-αMSH
T8 construct: purchased Perkin Elmer Biosignal
How it was run: as §1

[9] = molecular target: T9, Human neuropeptide Y (NPY-Y1) (Homo sapiens, UniProt P25929); assay: Radioligand binding, human neuropeptide Y NPY-Y1 membranes, FlashPlate, [125I]-PYY; details: compound at 10 μM, [125I]-PYY
T9 construct: purchased Perkin Elmer Biosignal
T9 sequence (P25929 1-384): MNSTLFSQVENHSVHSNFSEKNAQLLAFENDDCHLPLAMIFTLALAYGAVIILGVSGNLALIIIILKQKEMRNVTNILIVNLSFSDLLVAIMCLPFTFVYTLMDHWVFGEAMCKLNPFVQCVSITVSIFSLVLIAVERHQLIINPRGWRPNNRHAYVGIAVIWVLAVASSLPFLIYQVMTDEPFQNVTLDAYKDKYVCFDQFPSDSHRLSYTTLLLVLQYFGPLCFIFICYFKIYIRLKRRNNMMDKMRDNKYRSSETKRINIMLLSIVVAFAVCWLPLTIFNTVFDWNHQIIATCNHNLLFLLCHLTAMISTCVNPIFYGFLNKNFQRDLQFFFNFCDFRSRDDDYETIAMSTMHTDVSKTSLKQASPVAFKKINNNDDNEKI
How it was run: as §1

[10] = molecular target: T10, Human Melanocortin (MC4) (Homo sapiens, UniProt P32245); assay: Radioligand binding, human melanocortin MC4 membranes, FlashPlate, [125I]-NDP-αMSH; details: compound at 10 μM, [125I]-NDP-αMSH
T10 construct: purchased Perkin Elmer Biosignal
How it was run: as §1

[11] = molecular target: T11, Human μ-opioid (MOP) (Homo sapiens, UniProt P35372); assay: Radioligand binding, human μ-opioid (MOP) membranes, FlashPlate, [3H]-Naloxone; details: compound at 10 μM, [3H]-Naloxone
T11 construct: purchased Perkin Elmer Biosignal
How it was run: as §1

T6 sequence (P41143 whole entry): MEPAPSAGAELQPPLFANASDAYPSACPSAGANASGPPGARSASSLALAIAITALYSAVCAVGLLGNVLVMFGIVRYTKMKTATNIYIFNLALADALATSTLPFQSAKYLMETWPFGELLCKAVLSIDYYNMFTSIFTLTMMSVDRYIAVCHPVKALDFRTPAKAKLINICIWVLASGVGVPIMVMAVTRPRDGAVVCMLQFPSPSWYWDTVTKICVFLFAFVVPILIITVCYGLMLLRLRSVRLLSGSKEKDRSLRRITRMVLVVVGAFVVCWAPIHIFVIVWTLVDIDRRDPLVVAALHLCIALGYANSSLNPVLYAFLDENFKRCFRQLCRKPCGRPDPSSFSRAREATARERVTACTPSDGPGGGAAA
T1 sequence (Q99705 whole entry): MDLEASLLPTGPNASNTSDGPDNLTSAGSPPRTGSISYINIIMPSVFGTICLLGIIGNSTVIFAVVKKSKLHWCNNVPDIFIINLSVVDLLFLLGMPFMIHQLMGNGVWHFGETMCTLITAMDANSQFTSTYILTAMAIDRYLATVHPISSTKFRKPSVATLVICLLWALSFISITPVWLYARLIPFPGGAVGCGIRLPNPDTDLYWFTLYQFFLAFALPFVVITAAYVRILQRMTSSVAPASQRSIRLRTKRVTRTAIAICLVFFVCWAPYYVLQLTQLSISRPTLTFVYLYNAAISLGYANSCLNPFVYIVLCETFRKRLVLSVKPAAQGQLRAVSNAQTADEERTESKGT
T2 sequence (P41146 whole entry): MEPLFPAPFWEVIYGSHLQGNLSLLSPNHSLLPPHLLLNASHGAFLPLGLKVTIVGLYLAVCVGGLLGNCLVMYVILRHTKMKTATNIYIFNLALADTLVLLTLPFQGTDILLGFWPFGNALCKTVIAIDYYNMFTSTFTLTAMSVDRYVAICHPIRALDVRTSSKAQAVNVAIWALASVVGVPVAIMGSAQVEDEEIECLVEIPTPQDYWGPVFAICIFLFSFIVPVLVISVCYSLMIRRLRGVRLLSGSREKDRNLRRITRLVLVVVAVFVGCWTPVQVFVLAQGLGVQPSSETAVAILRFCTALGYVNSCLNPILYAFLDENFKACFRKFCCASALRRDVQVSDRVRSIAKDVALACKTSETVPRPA
T10 sequence (P32245 whole entry): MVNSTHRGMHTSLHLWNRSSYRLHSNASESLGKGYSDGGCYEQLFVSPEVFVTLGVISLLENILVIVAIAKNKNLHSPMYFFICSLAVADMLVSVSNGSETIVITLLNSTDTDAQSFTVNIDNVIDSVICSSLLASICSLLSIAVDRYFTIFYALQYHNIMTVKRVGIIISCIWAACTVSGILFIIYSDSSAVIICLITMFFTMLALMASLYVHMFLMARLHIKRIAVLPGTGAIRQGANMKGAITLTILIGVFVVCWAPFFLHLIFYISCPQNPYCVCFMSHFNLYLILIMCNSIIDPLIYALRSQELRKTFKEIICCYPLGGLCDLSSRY
T5 sequence (P25103 whole entry): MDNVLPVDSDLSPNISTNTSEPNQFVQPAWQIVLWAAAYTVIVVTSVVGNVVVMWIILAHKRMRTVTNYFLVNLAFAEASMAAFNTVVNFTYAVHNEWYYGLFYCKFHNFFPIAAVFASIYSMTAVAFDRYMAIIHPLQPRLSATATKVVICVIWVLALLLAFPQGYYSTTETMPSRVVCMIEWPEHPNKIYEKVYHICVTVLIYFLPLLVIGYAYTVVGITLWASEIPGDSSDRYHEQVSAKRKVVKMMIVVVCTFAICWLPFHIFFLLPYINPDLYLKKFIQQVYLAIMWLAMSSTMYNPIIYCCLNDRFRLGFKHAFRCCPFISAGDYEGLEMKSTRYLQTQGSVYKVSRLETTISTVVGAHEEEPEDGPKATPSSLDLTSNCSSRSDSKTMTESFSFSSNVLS
T8 sequence (P41968 whole entry): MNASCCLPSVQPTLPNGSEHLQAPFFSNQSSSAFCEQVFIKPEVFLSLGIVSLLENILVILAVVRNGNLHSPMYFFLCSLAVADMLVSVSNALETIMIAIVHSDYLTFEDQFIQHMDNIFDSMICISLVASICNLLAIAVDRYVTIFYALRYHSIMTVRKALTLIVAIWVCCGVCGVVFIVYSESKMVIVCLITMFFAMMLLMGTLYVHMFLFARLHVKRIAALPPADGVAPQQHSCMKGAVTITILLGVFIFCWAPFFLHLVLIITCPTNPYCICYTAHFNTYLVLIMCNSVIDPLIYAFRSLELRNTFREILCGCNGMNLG
T4 sequence (P33032 whole entry): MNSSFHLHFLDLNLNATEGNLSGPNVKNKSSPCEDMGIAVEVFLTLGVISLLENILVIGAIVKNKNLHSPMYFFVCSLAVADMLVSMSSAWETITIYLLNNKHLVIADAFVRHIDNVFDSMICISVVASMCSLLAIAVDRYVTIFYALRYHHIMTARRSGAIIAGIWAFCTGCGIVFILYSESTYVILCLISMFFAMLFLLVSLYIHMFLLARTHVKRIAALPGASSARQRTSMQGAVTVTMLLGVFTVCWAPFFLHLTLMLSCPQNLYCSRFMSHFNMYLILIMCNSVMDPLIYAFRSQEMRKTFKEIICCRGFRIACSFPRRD
T7 sequence (P41145 whole entry): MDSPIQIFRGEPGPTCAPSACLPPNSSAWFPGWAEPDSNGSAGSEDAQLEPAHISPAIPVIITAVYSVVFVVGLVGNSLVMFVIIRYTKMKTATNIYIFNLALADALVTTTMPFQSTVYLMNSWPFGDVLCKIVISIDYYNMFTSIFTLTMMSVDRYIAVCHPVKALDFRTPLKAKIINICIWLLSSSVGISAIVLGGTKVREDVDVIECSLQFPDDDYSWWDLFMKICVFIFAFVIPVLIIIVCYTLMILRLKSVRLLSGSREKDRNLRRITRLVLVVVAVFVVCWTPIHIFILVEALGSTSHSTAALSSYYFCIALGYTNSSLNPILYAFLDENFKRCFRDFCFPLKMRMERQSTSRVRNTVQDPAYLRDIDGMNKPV
T11 sequence (P35372 whole entry): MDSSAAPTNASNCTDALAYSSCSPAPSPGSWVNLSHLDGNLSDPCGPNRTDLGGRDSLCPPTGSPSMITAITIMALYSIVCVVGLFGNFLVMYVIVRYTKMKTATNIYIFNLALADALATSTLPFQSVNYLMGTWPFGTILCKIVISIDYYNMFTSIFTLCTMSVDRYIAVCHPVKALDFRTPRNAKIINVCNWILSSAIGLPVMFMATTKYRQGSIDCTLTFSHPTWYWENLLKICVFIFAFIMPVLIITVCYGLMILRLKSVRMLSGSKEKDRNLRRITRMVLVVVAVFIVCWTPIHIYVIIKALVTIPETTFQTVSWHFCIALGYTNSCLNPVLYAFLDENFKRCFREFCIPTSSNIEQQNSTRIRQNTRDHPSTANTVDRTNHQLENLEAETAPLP

Structure (SMILES)	A6: inhibition of radioligand binding, human melanin-concentrating hormone (MCH1) [1]	A10: inhibition of radioligand binding, human opioid (ORL1) [2]	A11: inhibition of radioligand binding, mouse urotensin (mUR2) [3]	A5: inhibition of radioligand binding, human melanocortin (MC5) [4]	A8: inhibition of radioligand binding, human neurokinin (NK1) [5]	A1: inhibition of radioligand binding, human δ-opioid (DOP) [6]	A9: inhibition of radioligand binding, human neuropeptide Y (NPY-Y1) [9]	A4: inhibition of radioligand binding, human melanocortin (MC4) [10]	A7: inhibition of radioligand binding, human μ-opioid (MOP) [11]	A6 radioligand binding, percentage inhibition [1]	A10 radioligand binding, percentage inhibition [2]	A11 radioligand binding, percentage inhibition [3]	A5 radioligand binding, percentage inhibition [4]	A8 radioligand binding, percentage inhibition [5]	A1 radioligand binding, percentage inhibition [6]	A2 radioligand binding, percentage inhibition [7]	A3 radioligand binding, percentage inhibition [8]	A9 radioligand binding, percentage inhibition [9]	A4 radioligand binding, percentage inhibition [10]	A7 radioligand binding, percentage inhibition [11]	also measured
O=C(N[C@H]1C(NC(=O)C2CCNCC2)O[C@H](CO)[C@@H](O)[C@@H]1OCc1cccc2ccccc12)c1ccccc1 (stereo partly shown) [compound 363]	− (“−” indicates less than 50% inhibition at 10 μM)	− (“−” indicates less than 50% inhibition at 10 μM)	− (“−” indicates less than 50% inhibition at 10 μM)	− (“−” indicates less than 50% inhibition at 10 μM)	+ (“+” indicates greater than 50% inhibition at 10 μM)	− (“−” indicates less than 50% inhibition at 10 μM)	− (“−” indicates less than 50% inhibition at 10 μM)	− (“−” indicates less than 50% inhibition at 10 μM)	− (“−” indicates less than 50% inhibition at 10 μM)												A2: inhibition of radioligand binding, human κ-opioid (KOP) [7]: − (“−” indicates less than 50% inhibition at 10 μM); A3: inhibition of radioligand binding, human melanocortin (MC3) [8]: − (“−” indicates less than 50% inhibition at 10 μM)
NCCCC(=O)NC1C(OCc2ccc3ccccc3c2)OC(COCc2ccccc2)C(O)C1OCc1ccc2ccccc2c1 (stereo not shown) [compound 462]																					A6: inhibition of radioligand binding ([1]; [125I]-S36057, human MCH1 membranes): − (“−” indicates less than 50% inhibition at 10 μM); A10: inhibition of radioligand binding ([2]; human ORL1 membranes, 10 µM): + (“+” indicates greater than 50% inhibition at 10 μM); A11: inhibition of radioligand binding ([3]; mouse mUR2 membranes): − (“−” indicates less than 50% inhibition at 10 μM); A5: inhibition of radioligand binding ([4]; human MC5 membranes): + (“+” indicates greater than 50% inhibition at 10 μM); A8: inhibition of radioligand binding ([5]; human NK1 membranes): + (“+” indicates greater than 50% inhibition at 10 μM); A1: inhibition of radioligand binding ([6]; human DOP membranes): − (“−” indicates less than 50% inhibition at 10 μM); A2: inhibition of radioligand binding ([7]; human KOP membranes): − (“−” indicates less than 50% inhibition at 10 μM); A3: inhibition of radioligand binding ([8]; human MC3 membranes, 10 µM): − (“−” indicates less than 50% inhibition at 10 μM); A9: inhibition of radioligand binding ([9]; human NPY-Y1 membranes): − (“−” indicates less than 50% inhibition at 10 μM); A4: inhibition of radioligand binding ([10]; human MC4 membranes, 10 µM): − (“−” indicates less than 50% inhibition at 10 μM); A7: inhibition of radioligand binding ([11]; human MOP membranes): − (“−” indicates less than 50% inhibition at 10 μM)
N=C(N)NCC(=O)NC1C(OCc2ccc(Cl)cc2)OC(COCc2ccc3ccccc3c2)C(O)C1OCc1ccc(Cl)cc1 (single isomer, unassigned) [compound 508]	+ (“+” indicates greater than 50% inhibition at 10 μM)	+ (“+” indicates greater than 50% inhibition at 10 μM)	− (“−” indicates less than 50% inhibition at 10 μM)	+ (“+” indicates greater than 50% inhibition at 10 μM)	+ (“+” indicates greater than 50% inhibition at 10 μM)	− (“−” indicates less than 50% inhibition at 10 μM)	− (“−” indicates less than 50% inhibition at 10 μM)	+ (“+” indicates greater than 50% inhibition at 10 μM)	− (“−” indicates less than 50% inhibition at 10 μM)												A2: inhibition of radioligand binding, human κ-opioid (KOP) ([7]; 10 µM): + (“+” indicates greater than 50% inhibition at 10 μM); A3: inhibition of radioligand binding, human melanocortin (MC3) ([8]; 10 µM): + (“+” indicates greater than 50% inhibition at 10 μM)
CO[C@H]1[C@H](O)[C@@H](COCc2cccc(O)c2)OC(OCc2ccc3ccccc3c2)[C@@H]1NC(=O)CNC(=N)N (stereo partly shown) [compound 150]										− (“−” indicates less than 50% inhibition at 10 μM)	− (“−” indicates less than 50% inhibition at 10 μM)	− (“−” indicates less than 50% inhibition at 10 μM)	+ (“+” indicates greater than 50% inhibition at 10 μM)	− (“−” indicates less than 50% inhibition at 10 μM)	− (“−” indicates less than 50% inhibition at 10 μM)	+ (“+” indicates greater than 50% inhibition at 10 μM)	− (“−” indicates less than 50% inhibition at 10 μM)	− (“−” indicates less than 50% inhibition at 10 μM)	− (“−” indicates less than 50% inhibition at 10 μM)	+ (“+” indicates greater than 50% inhibition at 10 μM)	
COCC1OC(OCc2ccccc2)C(NC(=O)CCCNC(=N)N)C(OCc2ccc(Cl)cc2)C1O (stereo not shown) [compound 181]										+ (“+” indicates greater than 50% inhibition at 10 μM)	− (“−” indicates less than 50% inhibition at 10 μM)	− (“−” indicates less than 50% inhibition at 10 μM)	+ (“+” indicates greater than 50% inhibition at 10 μM)	+ (“+” indicates greater than 50% inhibition at 10 μM)	− (“−” indicates less than 50% inhibition at 10 μM)	− (“−” indicates less than 50% inhibition at 10 μM)	− (“−” indicates less than 50% inhibition at 10 μM)	− (“−” indicates less than 50% inhibition at 10 μM)	+ (“+” indicates greater than 50% inhibition at 10 μM)	− (“−” indicates less than 50% inhibition at 10 μM)	

From patent US20080009418A1, “Selective Inhibitors” (Alchemia LTD., priority 2004, published 2008)
